Assays:
Type in all cases: functional
[1] = test system: MDA-MB-231; experiment: Cytotoxicity against human MDA-MB-231 cells after 48 hrs by SRB assay; settings: MDA-MB-231, 48 h; for CC50: read-out: LC50 (the source's name)
[2] = test system: A549; experiment: Cytotoxicity against human A549 cells after 48 hrs by SRB assay; settings: A549, 48 h
[3] = test system: HT-29; experiment: Cytotoxicity against human HT-29 cells after 48 hrs by SRB assay; settings: HT-29, 48 h

Row | Compound | GI50 [1] | TGI [1] | CC50 [1] | GI50 [2] | LC50 (concentration causing 50% net cell kill) [2] | TGI [2] | GI50 [3] | LC50 [3] | TGI [3]
1 | COc1ccc(C[C@H]2C(=O)N3[C@@H](COCc4ccccc4)c4c(c(OC)c(C)c(OC)c4OC)C[C@H]3[C@@H](OC)N2C(=O)OC(C)(C)C)cc1OC | > 14.1 µM | > 14.1 µM | > 14.1 µM | 9.2 µM | > 14.1 µM | > 14.1 µM | 9.38 µM | > 14.4 µM | > 14.4 µM
2 | COc1c(C)c(OC)c(OC)c2c1C[C@H]1N[C@@H]2[C@@H]2Cc3c(OC)c(C)c(OC)c(OC)c3[C@H](COC(=O)c3cccc4ccccc34)N2C1=O | 10.3 µM | > 14.6 µM | > 14.6 µM | 7.32 µM | > 14.6 µM | > 14.6 µM | 6.67 µM | > 18 µM | > 18 µM
3 | COc1c(C)c(OC)c(OC)c2c1C[C@H]1CN(Cc3ccccc3)CC(=O)N1[C@H]2COCc1ccccc1 (relative stereo) | 11.2 µM | > 19.4 µM | > 19.4 µM | 7.16 µM | > 19.4 µM | 16.1 µM | 12 µM | > 21.3 µM | > 21.3 µM
4 | COc1c(C)c(OC)c(OC)c2c1C[C@H]1CN(C(=O)OC(C)(C)C)CC(=O)N1[C@H]2COCc1ccccc1 | 14.1 µM | > 19 µM | > 19 µM | 8.82 µM | > 19 µM | > 19 µM | 8.66 µM | > 18.4 µM | > 18.4 µM
5 | COc1c(C)c(OC)c(OC)c2c1C[C@H]1[C@@H](O)N(C(=O)OC(C)C)CC(=O)N1[C@H]2COCc1ccccc1 |  |  |  |  |  |  |  | > 1.31 µM | 
6 | COc1c(C)c(OC)c(OC)c2c1C[C@H]1CN(C(=O)OC(C)(C)C)[C@@H](Cc3ccccc3)C(=O)N1[C@H]2COCc1ccccc1 | 7.13 µM | 10.5 µM | > 16.2 µM | 7.3 µM | > 16.2 µM | > 16.2 µM | 9.13 µM | > 16.6 µM | > 16.6 µM
7 | COc1ccc(C[C@H]2C(=O)N3[C@@H](COCc4ccccc4)c4c(c(OC)c(C)c(OC)c4OC)C[C@H]3[C@@H](OC)N2C(=O)OC(C)C)cc1OC | 9.53 µM | > 14.4 µM | > 14.4 µM | 6.21 µM | > 14.4 µM | > 14.4 µM | 12.3 µM | > 15.8 µM | > 15.8 µM
8 | COc1c(C)c(OC)c(OC)c2c1C[C@H]1CN(C)[C@@H](Cc3ccccc3)C(=O)N1[C@H]2COCc1ccccc1 | > 18.8 µM | > 18.8 µM | > 18.8 µM | 12.2 µM | > 18.8 µM | > 18.8 µM | 13 µM | > 16.2 µM | > 16.2 µM
9 | COc1c(C)c(OC)c(OC)c2c1C[C@H]1[C@H]3c4ccccc4C[C@@H]([C@H](C#N)N1[C@H]2CO)N3C (relative stereo) | 7.65 µM | 12.9 µM | 18.7 µM | 5.78 µM | 18.7 µM | 12 µM | 5.17 µM | > 14.4 µM | > 14.4 µM
10 | COc1c(C)c(OC)c(OC)c2c1C[C@H]1CN(Cc3ccc4ccccc4c3[N+](=O)[O-])CC(=O)N1[C@H]2COCc1ccccc1 (relative stereo) | 8.01 µM | > 16.3 µM | > 16.3 µM | > 16.3 µM | > 16.3 µM | > 16.3 µM | 4.06 µM | 17.8 µM | 9.48 µM
11 | COc1c(C)c(OC)c(OC)c2c1C[C@H]1[C@@H]3N[C@@H](Cc4ccccc43)C(=O)N1[C@H]2COC(=O)c1cccc2ccccc12 (relative stereo) | 8.64 µM | > 17.3 µM | > 17.3 µM | 13.3 µM | > 17.3 µM | > 17.3 µM | > 18.9 µM | > 18.9 µM | > 18.9 µM
12 | COc1c(C)c(OC)c(OC)c2c1C[C@H]1[C@@H]3c4c(c(OC)c(C)c(OC)c4OC)C[C@H](C(=O)N1C2COC(=O)c1cccc2ccccc12)N3C (relative stereo) | 7.46 µM | > 14.4 µM | > 14.4 µM | 6.17 µM | > 14.4 µM | > 14.4 µM | 6.88 µM | > 14.6 µM | > 14.6 µM
13 | COc1c(C)c(OC)c(OC)c2c1C[C@H]1[C@@H]3N[C@@H](Cc4ccccc43)C(=O)N1[C@H]2COC(=O)/C=C/c1ccccc1 (relative stereo) | 15 µM | > 18 µM | > 18 µM | 1.05 µM | > 18 µM | > 18 µM | 6.22 µM | > 17.3 µM | > 17.3 µM
14 | COc1cc(C[C@H]2NC=C3Cc4c(OC)c(C)c(OC)c(OC)c4[C@H](COC(=O)/C=C/c4ccccc4)N3C2=O)c(OC)c(C)c1OC | 10.6 µM | > 15.2 µM | > 15.2 µM | 6.53 µM | > 15.2 µM | > 15.2 µM | 11.1 µM | > 14.6 µM | > 14.6 µM
15 | CCCN1CC(=O)N2[C@@H](Cc3c(OC)c(C)c(OC)c(OC)c3[C@@H]2COCc2ccccc2)C1 (relative stereo) | 16.6 µM | > 21.3 µM | > 21.3 µM | 10 µM | > 21.3 µM | > 21.3 µM | 11.2 µM | > 19 µM | > 19 µM
16 | COc1c(C)c(OC)c(OC)c2c1C[C@H]1[C@H]3c4ccccc4C[C@@H](C(=O)N1[C@H]2CO)N3C(=O)OC(C)C | 17.6 µM | > 19.6 µM | > 19.6 µM | > 19.6 µM | > 19.6 µM | > 19.6 µM | 14 µM | > 16.6 µM | > 16.6 µM
17 | COc1c(C)c(OC)c(OC)c2c1C[C@H]1[C@H]3c4ccccc4C[C@@H]([C@H](C#N)N1[C@H]2COC(=O)/C=C/c1cccc(C(F)(F)F)c1)N3C (relative stereo) | 2.47 µM | 2.62 µM | 2.78 µM | 2.32 µM | 3.86 µM | 2.93 µM | 3.25 µM | 6.5 µM | 4.52 µM
18 | COc1c(C)c(OC)c(OC)c2c1C[C@H]1CN(C(=O)OC(C)C)CC(=O)N1[C@H]2COCc1ccccc1 |  |  |  |  |  |  | 8.32 µM |  | 9.84 µM
19 | COc1c(C)c(OC)c(OC)c2c1C[C@@H]1N[C@H]2[C@@H]2Cc3c(OC)c(C)c(OC)c(OC)c3[C@H](CO)N2C1=O (relative stereo) | 16.1 µM | > 18.9 µM | > 18.9 µM | > 18.9 µM | > 18.9 µM | > 18.9 µM | 12.3 µM | > 15.1 µM | > 15.1 µM
20 | COc1cc(C[C@@H]2NCC3=Cc4c(OC)c(C)c(OC)c(OC)c4[C@H](COC(=O)c4cccc5ccccc45)N3C2=O)c(OC)c(C)c1OC | 8.79 µM | > 14.6 µM | > 14.6 µM | 2.78 µM | > 14.6 µM | > 14.6 µM | 7.64 µM | > 14.1 µM | > 14.1 µM
21 | COc1c(C)c(OC)c(OC)c2c1C[C@H]1CN(C(=O)OC(C)C)[C@@H](Cc3ccccc3)C(=O)N1[C@H]2COCc1ccccc1 | > 16.6 µM | > 16.6 µM | > 16.6 µM | > 16.6 µM | > 16.6 µM | > 16.6 µM | 16.3 µM | > 16.3 µM | > 16.3 µM
22 | COc1c(C)c(OC)c(OC)c2c1C[C@H]1[C@H](C#N)N3[C@@H](CO)c4c(c(OC)c(C)c(OC)c4OC)C[C@H]3[C@@H]2N1C (relative stereo) | 4.7 µM | 9.03 µM | 14.1 µM | 3.43 µM | 13.2 µM | 8.13 µM | 7.12 µM | 15.1 µM | 10.5 µM
23 | COc1c(C)c(OC)c(OC)c2c1C[C@H]1[C@@H](OC)N(C(=O)OC(C)C)CC(=O)N1[C@H]2COCc1ccccc1 | 12.3 µM | > 18.4 µM | > 18.4 µM | 11.2 µM | > 18.4 µM | > 18.4 µM | 0.195 µM | 0.527 µM | 0.273 µM
24 | COc1c(C)c(OC)c(OC)c2c1C[C@H]1[C@H]3c4ccccc4C[C@@H](C(=O)N1[C@H]2COCc1ccccc1)N3C(=O)OC(C)C | 8.32 µM | > 16.6 µM | > 16.6 µM | > 16.6 µM | > 16.6 µM | > 16.6 µM | 12.3 µM | > 15.2 µM | > 15.2 µM
25 | COc1c(C)c(OC)c(OC)c2c1C[C@H]1[C@@H](OC)N(C(=O)OC(C)C)[C@@H](Cc3ccccc3)C(=O)N1[C@H]2COCc1ccccc1 | 12.2 µM | > 15.8 µM | > 15.8 µM | 11.1 µM | > 15.8 µM | > 15.8 µM | 11.3 µM | > 18.8 µM | > 18.8 µM
26 | COc1cc2c(cc1O)CCN[C@]21CS[C@@H]2c3c(OC(C)=O)c(C)c4c(c3[C@H](COC1=O)N1[C@@H]2[C@H]2c3c(cc(C)c(OC)c3O)C[C@@H]([C@@H]1O)N2C)OCO4 [TRABECTEDIN] | 0.000396 µM | 0.00101 µM | 0.0017 µM | 0.00281 µM |  | 0.00315 µM | 2.47 µM |  | 2.93 µM

Source: ChEMBL document CHEMBL1221363, “Cytotoxicity of new pyrazino[1,2-b]isoquinoline and 6,15-iminoisoquino[3,2-b]3-benzazocine compounds” (2010)
